EP1377579B1 (Aventis Pharmaceuticals Inc., priority 2000, dated 2002)

What was measured:
[1] = molecular target: cdk4/cyclin D1 (Homo sapiens, UniProt P11802); test: Cyclin-dependent kinase assay, cdk4/cyclin D1; type: biochemical; conditions: cyclin D1/cdk4; GST-pRb substrate, 10 µM ATP
[2] = test system: NCI-H460; test: In vitro proliferation assay (MTT), NCI-H460; type: cell-based; conditions: Homo sapiens, NCI-H460; MTT assay; value (SD, n) where given; read-out: H-460 Lung (IC50 µM)
How it was run: (§1)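 Overnight-recovered cultures (1000–2500 cells/well) were treated with compound for 3 days and then given MTT at 37 C for 2–4 hr. Dye was extracted with DMSO and read at 570 nm. IC50s were fitted to the absorbance-versus-concentration data.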

[3] = test system: HL-60; test: In vitro proliferation assay (MTT), HL-60; type: cell-based; conditions: Homo sapiens, HL-60; MTT assay; value (SD, n) where given; read-out: HL-60 Leuk. (IC50 µM)
How it was run: as §1

[4] = test system: PC-3; test: In vitro proliferation assay (MTT), PC-3; type: cell-based, human; conditions: Homo sapiens, PC-3, MTT assay; value (SD, n) where given; read-out: PC-3 Prostate (IC50 µM)
How it was run: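 Tetrazolium (MTT) reduction measures live cells remaining after 3 days with test compound, following overnight attachment at 1000–2500 cells/well. Dye is taken up in DMSO and read at 570 nm.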

[5] = Red blood cell binding, mouse whole blood; type: in vitro ADME; conditions: 30 minutes at 37°C, 500 ng/ml
Experimental: Compounds, including one positive control, are assessed for red blood cell (RBC) uptake, using a modified procedure based on the protocol reported in Sun, J.X.S., et al. High-performance liquid chromatographic analysis, plasma protein binding and red blood cell partitioning of phenprobamate. Biopharmaceutics and Drug Disposition, 8 (1987) 341-351.
Briefly, RBC uptake is evaluated by comparison of the levels in spiked plasma (n=3) and plasma isolated from spiked whole blood (n=3). Compounds are incubated with human and mouse whole blood, respectively, for 30 minutes at 37°C using a nominal concentration of 500 ng/ml. Following centrifugation, the plasma is removed and submitted for analysis. Each compound is also spiked into blank plasma at a nominal concentration of 500 ng/ml, and submitted for analysis. Levels in the two plasma samples (Cp' and Cp in the equation below) and the blood hematocrit are used to determine the red blood cell to plasma ratio (Crbc/Cp). (Crbc)/(Cp) = (Cpʹ)/(Cp•H)-((1-H))/(H) [formula] In equation 1, Cp' is the level of drug in the spiked "blank" plasma, Cp is the level of drug in the plasma of spiked whole blood, and H is the hematocrit. The hematocrit values are determined as 0.4 for human whole blood and 0.41 for mouse whole blood. The samples are analyzed with ESI LC/MS, using positive ion detection with an internal standard.
The red blood cell to plasma ratio is determined for each compound using equation 1. Tables 6 and 7 summarize the respective mean Crbc/Cp values and standard deviations for mouse and human whole blood, respectively, in descending order based on the red blood cell to plasma ratio, where"*" denotes Positive Control, and "ND" denotes Not Determined. MDL 108552 is included as a positive control for red blood cell uptake. Table 6. Red Blood Cell to Plasma Ratio for compounds in mouse whole blood

[6] = in vivo; conditions: male, Hsd:ICR (CD-1), mouse, plasma
[7] = molecular target: cdk2/cyclin E (Homo sapiens, UniProt P24941); test: Cyclin-dependent kinase assay, cdk2/cyclin E; conditions: CDK2 IC50, nM, GST-pRb substrate, 10 µM ATP
[8] = Bioavailability experiment in mice given single intravenous cassette doses; conditions: for Cls: mice plasma, single intravenous cassette dose; for Conc. in plasma / Conc. (ng/ml) in plasma: mice; for Conc. in plasma: single 15 mg/kg intravenous cassette dose (3 mg/kg/compound), BLQ = below assay quantification limit (approximately 1 ng/ml); for Conc. (ng/ml) in plasma: Cassette #1, single 18 mg/kg intravenous cassette dose, 24 h, BLQ = below assay quantification limit
[9] = 3 mg/kg/compound (18 mg/kg Total Dose), Cassette #1

Sequence of cdk4/cyclin D1 (P11802 whole entry): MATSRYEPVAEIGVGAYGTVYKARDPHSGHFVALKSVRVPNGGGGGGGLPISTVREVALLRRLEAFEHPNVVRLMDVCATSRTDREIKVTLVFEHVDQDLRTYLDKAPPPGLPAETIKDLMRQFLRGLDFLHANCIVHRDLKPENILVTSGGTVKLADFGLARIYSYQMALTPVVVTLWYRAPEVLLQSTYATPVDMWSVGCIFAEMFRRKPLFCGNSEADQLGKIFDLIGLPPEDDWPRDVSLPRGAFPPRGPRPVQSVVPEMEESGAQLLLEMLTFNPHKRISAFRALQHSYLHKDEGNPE
Sequence of cdk4/cyclin D1 (P24385 whole entry partner): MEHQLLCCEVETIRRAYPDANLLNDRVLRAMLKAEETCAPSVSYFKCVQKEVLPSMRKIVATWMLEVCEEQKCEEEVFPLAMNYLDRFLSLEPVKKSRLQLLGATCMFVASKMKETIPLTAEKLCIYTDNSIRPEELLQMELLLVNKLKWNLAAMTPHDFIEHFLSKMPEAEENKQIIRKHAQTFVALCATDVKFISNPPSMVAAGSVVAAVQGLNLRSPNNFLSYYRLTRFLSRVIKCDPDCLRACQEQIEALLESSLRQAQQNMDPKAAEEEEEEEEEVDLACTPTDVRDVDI

| IC50 [1] | IC50 [2] | IC50 [3] | IC50 [4] | Mean Red Blood Cell to Plasma Ratio [5] | concentration at 0.083 h ([6]; intravenous, 3 mg/kg) | concentration at 0.25 h ([6]; intravenous, 3 mg/kg) | concentration at 0.5 h ([6]; intravenous, 3 mg/kg) | concentration at 1 h ([6]; intravenous, 3 mg/kg) | concentration at 3 h ([6]; intravenous, 3 mg/kg) | concentration at 6 h ([6]; intravenous, 3 mg/kg) | AUC(0-inf) ([6]; iv, 3 mg/kg) | Cmax ([6]; iv, 3 mg/kg) | half-life ([6]; iv, 3 mg/kg) | IC50 [7] | concentration at 0.083 h ([6]; iv, 18 mg/kg) | concentration at 0.25 h ([6]; iv, 18 mg/kg) | concentration at 0.5 h ([6]; iv, 18 mg/kg) | concentration at 1 h ([6]; iv, 18 mg/kg) | concentration at 3 h ([6]; iv, 18 mg/kg) | further results | SMILES |
| --- | --- | --- | --- | --- | --- | --- | --- | --- | --- | --- | --- | --- | --- | --- | --- | --- | --- | --- | --- | --- | --- |
| 15 nM | 0.22 µM | 0.1 µM | 0.82 µM | 3.0 | 765 ± 64.3 ng/mL | 397 ± 59.2 ng/mL | 185 ± 13 ng/mL | 63.3 ± 0.5 ng/mL | 21.8 ± 6.1 ng/mL | 4.3 ± 0.8 ng/mL | 440 ng·h/mL | 765 ng/mL | 1.3 h | 8 nM |  |  |  |  |  | Cls ([8]; 3 mg/kg/compound (15 mg/kg Total Dose), Cassette #4): 113.7 mL/min/kg; Conc. in plasma ([8]; Cassette #4, 8 h, Mean ± SD): BLQ^a; Conc. in plasma ([8]; Cassette #4, 24 h): BLQ | Cl.Cl.N[C@H]1CC[C@H](Nc2nc(NC3CCN(S(=O)(=O)c4ccc(F)cc4)CC3)c3ncn(C4CCCC4)c3n2)CC1 [compound 106, trans-N^2-(4-Amino-cyclohexyl)-9-cyclopentyl-N^6-[1-(4-fluoro-benzenesulfonyl)-piperidin-4-yl]-9H-purine-2,6-diamine dihydrochloride] |
| 12 nM | 0.25 µM | 0.12 µM | 0.32 µM | 2.4 |  |  |  |  |  |  | 1110 ng·h/mL | 1690 ng/mL | 2 h | 45 nM | 1690 ± 224 ng/mL | 915 ± 15.2 ng/mL | 514 ± 45.2 ng/mL | 238 ± 38.7 ng/mL | 30.1 ± 8.5 ng/mL | concentration at 6 h ([6]; iv, 18 mg/kg): 9.5 ± 1.8 ng/mL; concentration at 8 h ([6]; iv, 18 mg/kg): 5.5 ± 0.9 ng/mL; Conc. (ng/ml) in plasma [8]: BLQ; Cls [8, 9]: 45.1 mL/min/kg | Cl.Cl.N#Cc1ccc(S(=O)(=O)N2CCC(Nc3nc(N[C@H]4CC[C@H](N)CC4)nc4c3ncn4C3CCCC3)CC2)cc1 [compound 109, trans-N^2-(4-Amino-cyclohexyl)-9-cyclopentyl-N^6-[1-(4-cyano-benzenesulfonyl)-piperidin-4-yl]-9H-purine-2,6-diamine dihydrochloride] |
| 51 nM | 0.28 µM | 0.38 µM | 0.76 µM | 2.2 |  |  |  |  |  |  | 1460 ng·h/mL | 2450 ng/mL | 2 h | 9 nM | 2450 ± 287 ng/mL | 1090 ± 129 ng/mL | 588 ± 29.3 ng/mL | 335 ± 81.3 ng/mL | 33.8 ± 6.8 ng/mL | concentration at 6 h ([6]; iv, 18 mg/kg): 10.9 ± 3 ng/mL; concentration at 8 h ([6]; iv, 18 mg/kg): 6 ± 2 ng/mL; Conc. (ng/ml) in plasma [8]: BLQ; Cls [8, 9]: 34.2 mL/min/kg | COC(=O)c1ccccc1S(=O)(=O)N1CCC(Nc2nc(N[C@H]3CC[C@H](N)CC3)nc3c2ncn3C2CCCC2)CC1.Cl.Cl [compound 111, trans-2-{4-[2-(4-Amino-cyclohexylamino)-9-cyclopentyl-9H-purin-6-ylamino]-piperidine-1-sulfonyl}-benzoic acid methyl ester dihydrochloride] |
| 224 nM | 0.07 µM | 0.18 µM | 0.16 µM | 2.4 | 2810 ± 272 ng/mL | 1700 ± 312 ng/mL | 435 ± 48 ng/mL | 175 ± 42.4 ng/mL | 45 ± 7.2 ng/mL | 17.7 ± 1.7 ng/mL | 1460 ng·h/mL | 2810 ng/mL | 2.8 h | 48 nM |  |  |  |  |  | concentration at 8 h ([6]; intravenous, 3 mg/kg): 13.6 ± 3.7 ng/mL; Cls ([8]; 3 mg/kg/compound (15 mg/kg Total Dose), Cassette #3): 34.2 mL/min/kg; Conc. in plasma ([8]; Cassette #3, 24 h): BLQ | Cl.Cl.N[C@H]1CC[C@H](Nc2nc(NC3CCN(S(=O)(=O)c4cccc(C(F)(F)F)c4)CC3)c3ncn(C4CCCC4)c3n2)CC1 [compound 112, trans-N^2-(4-Amino-cyclohexyl)-9-cyclopentyl-N^6-[1-(3-trifluoromethyl-benzenesulfonyl)-piperidin-4-yl]-9H-purine-2,6-diamine dihydrochloride] |
